These results are taken from patent US8741932B2, “Imidazopyridine derivatives” (Piramal Enterprises Limited, priority 2009, dated 2014).

A value given as a limit tells only on which side of the number the result lay.

The test system of series [1] is A549. The experiment in a line: Cytotoxicity assay (propidium iodide), A549. The class given is cell-based. The conditions noted are these: A549 (C1a, lung), 48 hours.
The test system of series [2] is H460. Nature of the series: Cytotoxicity assay (propidium iodide), H460. The conditions noted are these: H460 (C1b, lung), 48 hours. The class given is cell-based.
Series [3] concerns IL-6. The experiment in a line: Human monocyte assay, LPS-stimulated IL-6. Type of series: cell-based. As to conditions: human monocytes, 1 μg/ml LPS, 5 hours. How it is done: The assay was designed as in the reference, Physiol.
Peripheral blood mononuclear cells (hPBMC) were harvested from human blood and suspended in RPMI 1640 culture medium containing 10% FCS, 100 U/mL penicillin and […] streptomycin (assay medium). Monocytes in the hPBMCs were counted using a Coulter Counter following which the cells were resuspended at 2×10^5 monocytes/mL. A cell suspension containing 2×10^4 monocytes was aliquoted per well of a 96-well plate. Subsequently, the hPBMCs were incubated for 4-5 hours at 37° C., 5% CO2 (During the incubation, the monocytes adhered to the bottom of 96-well plastic culture plate). Following the incubation, the non-adherent lymphocytes were washed with assay medium and the adherent monocytes re-fed with assay medium. After a 48-hour incubation period (37° C., 5% CO2), monocytes were pretreated with various concentrations of representative compounds of present invention (refer to table 6 and 7) (prepared in DMSO) or vehicle (0.5% DMSO) for 30 minutes and stimulated with 1 μg/ml LPS (Escherchia coli 0111:B4, Sigma Chemical Co., St. Louis, Mo.). The incubation was continued for 5 hours at 37° C., 5% CO2. Supernatants were harvested, assayed for IL-6 and TNF-α by ELISA as described by the manufacturer (BD Biosciences, USA). Dexamethasone (10 μM) was used as standard for this assay. […] Biological results for both IL-6 and TNFα are indicated in Table 6 and Table 7 respectively.

The test system of series [4] is A2780. The experiment in a line: Cytotoxicity assay (propidium iodide), A2780. The class given is cell-based. As to conditions: A2780 (C3a), 1 μM; for inhibition at 1 µM: Homo sapiens.
Procedure: (§1) Cells from cell lines as mentioned in the table given below were seeded at a density of 3000 cells/well in a white opaque 96-well plate. Following incubation at 37° C./5% CO2 for a period of 18-24 hours, the cells were treated with various concentrations (stock solution was prepared in DMSO and subsequent dilutions were made in media as per ATCC guidelines) of the representative compounds of present invention (refer table 3) for a period of 48 hours. At the end of treatment, the spent culture medium was discarded, the cells were washed with 1×PBS and 200 μl of 7 μg/ml propidium iodide was added to each well. The plates were frozen at −70° C. for at least 24 hours. For analysis, the plates were brought to RT, allowed to thaw and were read in PolarStar fluorimeter with the fluorescence setting. The percentage of viable cells in the non treated set of wells was considered to be 100 and the percentage viability following treatment was calculated accordingly. IC50 values were calculated from graphs plotted using these percentages.
The subject of series [5] is PC3. Nature of the series: Cytotoxicity assay (propidium iodide), PC3. As to conditions: for inhibition at 1 µM: Homo sapiens, PC-3, read-out: % inhibition at 1 μM.
Procedure: as §1

`Cc1ccccc1S(=O)(=O)N(C)/N=C/c1cnc2ccc(-c3cccnc3)cn12` [Example 53, (E)-N, 2-dimethyl-N′-((6-(pyridin-3-yl)imidazo[1,2-a]pyridin-3-yl)methylene)benzenesulfonohydrazide]: the IC50 in series [1] (Homo sapiens) was in the range of 0.01 to 5 µM; in series [2] (Homo sapiens, NCI-H460) it was 0.01 to 5 µM; in series [3] (Monocyte) it was 0.001 to 5 µM. In the case of `CN(/N=C/c1cnc2ccc(-c3cccnc3)cn12)S(=O)(=O)c1ccccc1OC(F)(F)F` [Example 54, (E)-N-methyl-N′-((6-(pyridin-3-yl)imidazo[1,2-a]pyridin-3-yl)methylene)-2-(trifluoromethoxy)benzenesulfonohydrazide], the IC50 in series [1] (Homo sapiens) was in the range of 0.01 to 5 µM; in series [2] (Homo sapiens, NCI-H460), 0.01 to 5 µM; in series [3] (Monocyte), 0.001 to 5 µM.

With `CN(/N=C/c1cnc2ccc(-c3cccnc3)cn12)S(=O)(=O)c1cc(C(F)(F)F)ccc1Cl` [Example 65, (E)-2-chloro-N-methyl-N′-((6-(pyridin-3-yl)imidazo[1,2-a]pyridin-3-yl)methylene)-5-(trifluoromethyl)benzenesulfonohydrazide], the IC50 lay in the range of 0.01 to 5 µM in series [1] (Homo sapiens); 0.01 to 5 µM in series [2] (Homo sapiens, NCI-H460); 0.001 to 5 µM in series [3] (Monocyte). For `COc1ccc(F)cc1S(=O)(=O)N(C)/N=C/c1cnc2ccc(-c3cccnc3F)cn12` [Example 88, (E)-5-Fluoro-N′-((6-(2-fluoropyridin-3-yl)imidazo[1,2-a]pyridin-3-yl)methylene)-2-methoxy-N-methylbenzenesulfonohydrazide], the IC50 was 0.01 to 5 µM in series [1] (Homo sapiens); 0.01 to 5 µM in series [2] (Homo sapiens, NCI-H460); 0.001 to 5 µM in series [3] (Monocyte).

As to `COc1ccc(Br)cc1S(=O)(=O)N(C)/N=C/c1cnc2ccc(-c3cccnc3F)cn12` [Example 91, (E)-5-bromo-N′-((6-(2-fluoropyridin-3-yl)imidazo[1,2-a]pyridin-3-yl)methylene)-2-methoxy-N-methylbenzenesulfonohydrazide], the inhibition at 1 µM in series [4] and in series [5] was greater than 50% each time. For `Cc1cc2ncc(C=NN(C)S(=O)(=O)c3ccccc3C#N)n2cc1-c1cccnc1` [Example 117, 2-Cyano-N-methyl-N′-((7-methyl-6-(pyridin-3-yl)imidazo[1,2-a]pyridin-3-yl)methylene) benzenesulfonohydrazide], the concentration for half-maximal inhibition (IC50) in series [3] (Monocyte) is no less than 5 µM. Regarding `Cc1cc2ncc(C=NN(C)S(=O)(=O)c3cc(F)ccc3C)n2cc1-c1cccnc1` [Example 118, 5-Fluoro-N, 2-dimethyl-N′-((7-methyl-6-(pyridin-3-yl)imidazo[1,2-a]pyridin-3-yl)methylene) benzenesulfonohydrazide], the IC50 in series [3] (Monocyte) is no less than 5 µM. As for `Cc1cccc(S(=O)(=O)N(C)/N=C/c2cnc3ccc(-c4cccnc4)c(C)n23)c1` [Example 127, (E)-N,3-dimethyl-N′-((5-methyl-6-(pyridin-3-yl)imidazo[1,2-a]pyridin-3-yl)methylene)benzenesulfonohydrazide], the half-maximal inhibitory concentration (IC50) in series [3] (Monocyte) is no less than 5 µM. For `Cc1ccc(-c2ccc3ncc(/C=N/N(C)S(=O)(=O)c4cc(F)ccc4C)n3c2)cn1` [Example 128, (E)-5-fluoro-N,2-dimethyl-N′-((6-(6-methylpyridin-3-yl)imidazo[1,2-a]pyridin-3-yl)methylene)benzenesulfonohydrazide], in series [3] (Monocyte), the IC50 is 0.001 to 5 µM. As for `Cc1ccc(-c2ccc3ncc(/C=N/N(C)S(=O)(=O)c4ccccc4OC(F)(F)F)n3c2)cn1` [Example 129, (E)-N-methyl-N′-((6-(6-methylpyridin-3-yl)imidazo[1,2-a]pyridin-3-yl)methylene)-2-(trifluoromethoxy)benzenesulfonohydrazide], in series [3] (Monocyte), the IC50 was no less than 5 µM. `COc1ccc(F)cc1S(=O)(=O)N(C)/N=C/c1cnc2ccc(-c3ccc(C)nc3)cn12` [Example 130, (E)-5-Fluoro-2-methoxy-N-methyl-N′-((6-(6-methylpyridin-3-yl)imidazo[1,2-a]pyridin-3-yl)methylene)benzenesulfonohydrazide] displayed an IC50 in series [3] (Monocyte) of 0.001 to 5 µM. In the case of `Cc1ccc(-c2ccc3ncc(/C=N/N(C)S(=O)(=O)c4ccccc4C)n3c2)cn1` [Example 131, (E)-N,2-dimethyl-N′-((6-(6-methylpyridin-3-yl)imidazo[1,2-a]pyridin-3-yl)methylene)benzenesulfonohydrazide], the 50% inhibitory concentration (IC50) in series [3] (Monocyte) was no less than 5 µM. Same read-out and setting: as for `Cc1ccc(F)cc1S(=O)(=O)N(C)/N=C/c1cnc2ccc(-c3cnc(F)c(C)c3)cn12` [Example 134, (E)-5-Fluoro-N′-((6-(6-fluoro-5-methylpyridin-3-yl)imidazo[1,2-a]pyridin-3-yl)methylene)-N,2-dimethylbenzenesulfonohydrazide], the figure is 0.001 to 5 µM. In series [3], `Cc1ccc(F)cc1S(=O)(=O)N(C)/N=C/c1cnc2ccc(-c3ccc(Cl)nc3)cn12` [Example 135, (E)-N′-((6-(6-Chloropyridins-3-yl)imidazo[1,2-a]pyridin-3-yl)methylene)-5-fluoro-N,2-dimethylbenzenesulfonohydrazide] showed a concentration for half-maximal inhibition (IC50) of 0.001 to 5 µM. Turning to `COc1ccc(-c2ccc3ncc(/C=N/N(C)S(=O)(=O)c4cc(F)ccc4C)n3c2)cn1` [Example 137, (E)-5-fluoro-N′-((6-(6-methoxypyridin-3-yl)imidazo[1,2-a]pyridin-3-yl)methylene)-N,2-dimethylbenzenesulfonohydrazide], in series [3] (Monocyte), the concentration for half-maximal inhibition (IC50) is no less than 5 µM. `COc1ncc(-c2ccc3ncc(/C=N/N(C)S(=O)(=O)c4cc(F)ccc4C)n3c2)cn1` [Example 138, (E)-5-Fluoro-N-((6-(2-methoxypyrimidin-5-yl)imidazo[1,2-a]pyridine-3-yl)methylene)-N, 2-dimethylbenzenesulfonohydrazide] showed an IC50 in series [3] of no less than 5 µM.

In series [3] (Monocyte), `Cc1ccc(F)cc1S(=O)(=O)N(C)/N=C/c1cnc2ccc(-c3cncc(C(F)(F)F)c3)cn12` [Example 139, (E)-5-fluoro-N, 2-dimethyl-N′-((6-(5-(trifluoromethyl)pyridin-3-yl)imidazo[1,2-a]pyridin-3-yl)methylene) benzenesulfonohydrazide] registered a half-inhibitory concentration (IC50) of no less than 5 µM.

On to `CN(/N=C/c1cnc2ccc(-c3cccnc3)cn12)C(=O)NCc1ccccc1` [Example 141, (E)-N-benzyl-1-methyl-2-((6-(pyridin-3-yl)imidazo[1,2-a]pyridin-3-yl)methylene)hydrazinecarboxamide], for which the IC50 in series [3] (Monocyte) lay in the range of 0.001 to 5 µM. Turning to `Cc1ccc(NC(=O)N(C)/N=C/c2cnc3ccc(-c4cccnc4)cn23)cc1` [Example 142, (E)-1-methyl-2-((6-(pyridin-3-yl)imidazo[1,2-a]pyridin-3-yl)methylene)-N-p-tolylhydrazinecarboxamide], the inhibition at 1 µM in series [4] and in series [5] was 30 to 50% each time. This compound registered an IC50 in series [3] (Monocyte) of no less than 5 µM. Take `Cc1ccc(F)c(NC(=O)N(C)/N=C/c2cnc3ccc(-c4cccnc4)cn23)c1` [Example 143, (E)-N-(2-fluoro-5-methylphenyl)-1-methyl-2-((6-(pyridin-3-yl)imidazo[1,2-a]pyridin-3-yl)methylene)hydrazinecarboxamide]: the inhibition at 1 µM in series [4] and in series [5] was 30 to 50% throughout. Besides, in series [3] (Monocyte), the IC50 was in the range of 0.001 to 5 µM. Take `Cc1ccc(F)cc1NC(=O)N(C)/N=C/c1cnc2ccc(-c3cccnc3)cn12` [Example 144, (E)-N-(5-fluoro-2-methylphenyl)-1-methyl-2-((6-(pyridin-3-yl)imidazo[1,2-a]pyridin-3-yl)methylene)hydrazinecarboxamide]: the inhibition at 1 µM in series [4] and in series [5] was 30 to 50% in each case. Further, the IC50 in series [3] (Monocyte) is no less than 5 µM. In the case of `CN(N=Cc1cnc2ccc(Br)cn12)C(=O)NCc1ccccc1` [Example 145, N-benzyl-2-((6-bromoimidazo[1,2-a]pyridin-3-yl)methylene)-1-methylhydrazinecarboxamide], the concentration for half-maximal inhibition (IC50) in series [3] (Monocyte) was in the range of 0.001 to 5 µM. Take `Cc1ccc(F)c(NC(=O)N(C)N=Cc2cnc3ccc(Br)cn23)c1` [Example 146]: the “% inhibition at 1 μM” value in series [4] is “++ (% Inhibition >50%)”; in series [5] (PC3 (C2a), 1 μM), “++ (% Inhibition >50%)”. The IC50 in series [3] is no less than 5 µM. Compound `CN(/N=C/c1cnc2ccc(-c3cccnc3)cn12)C(=S)NCCN1CCOCC1` [Example 148] displayed an IC50 in series [3] of no less than 5 µM.

In series [3], `CN(N=Cc1cnc2ccc(Br)cn12)C(=S)NCCN1CCOCC1` [Example 151, 2-((6-bromoimidazo[1,2-a]pyridin-3-yl)methylene)-1-methyl-N-(2-morpholinoethyl) hydrazinecarbothioamide] came in with an IC50 of 0.001 to 5 µM. Take “(E)-5-fluoro-N′-((6-(5-fluoropyridin-3-yl) imidazo[1,2-a]pyridin-3-yl)methylene)-N, 2-dimethylbenzenesulfonohydrazide [Example 132]”: the concentration for half-maximal inhibition (IC50) in series [1] and in series [2] was 0.01 to 5 µM each time.

As a reminder, the IC50 is the midpoint of a concentration-inhibition curve. A high value points to weaker potency. The inhibition is how much of the control response was suppressed.
